Key:
Type in all cases: in vivo
[1] = tested on: common ragweed (Ambrosia artemisiifolia L., AMBEL); assay: Greenhouse herbicide screen, post-emerge application, phytotoxicity rating; details: POST emergent, 14 days after application, scale 0-100
Description: (§1) A standard greenhouse herbicide activity screening system was used to evaluate the herbicidal efficacy and crop safety of these test compounds. Seven broadleaf weed species including redroot pigweed (Amaranthus retrofiexus, AMARE), velvetleaf (Abutilon theophrasti, ABUTH), sicklepod (Cassia obtusifolia, CASOB), ivyleaf morningglory (Ipomoea hederacea, IPOHE), lambsquarters (Chenopodium album, CHEAL), common ragweed (Ambrosia artemisiifolia L., AMBEL), and cocklebur (Xanthium strumarium, XANST) were used as test species. Four grass weed species including green foxtail (Setaria viridis, SETVI), barnyardgrass (Echinochloa crus-galli, ECHCG), johnsongrass (Sorghum halepense, SORHA), and large crabgrass (Digitaria sanguinalis, DIGSA) were also used. In addition, four crop species, field corn (Zea mays L., var. Dekalb 535, CORN), soybean (Glycine max L., var. Pella 86, SOY), upland rice (Oryza sp., var.Cocodrie, RICE) and wheat (Triticum aestivum L.) were included.
(§2) All plants were grown in 10 cm square plastic pots which were filled with a sandy loam soil mix. For pre-emerge tests, seeds were planted one day prior to application of the test compounds. For post-emerge tests, seeds were planted 8-21 days prior to the test to allow emergence and good foliage development prior to application of the test substances. At the time of the post-emerge application, plants of all species were usually at the 2-3 leaf stage of development.
(§3) All test compounds were dissolved in acetone and applied to the test units in a volume of 187 l/ha. Test materials were applied at rates ranging from 15 g ai/ha to 1000 g ai/ha using a track sprayer equipped with a TJ8001E even flow flat fan spray nozzle. Plants were arranged on a shelf so that the top of the canopy (post-emerge) or top of the soil surface (pre-emerge) was 40-45 cm below the nozzle. Pressurized air was used to force the test solution through the nozzle as it was mechanically advanced (via electrically driven chain drive) over the top of all test plants/pots. This application simulates a typical commercial field herbicide application.
(§4) Pre-emergence tests were top watered immediately after treatment to incorporate the test materials, then routinely top-watered for normal growth. Post-emerge test units were always bottom-watered.
(§5) At 14 days after application of the test materials, phytotoxicity ratings were recorded. A rating scale of 0-100 was used as previously described in Research Methods in Weed Science, 2nd edition, B. Truelove, Ed., Southern Weed Science Society, Auburn University, Auburn, Ala., 1977. Briefly, “0” corresponds to no damage and “100” corresponds to complete death of all plants in the test unit. This scale was used both to determine efficacy against weed species and damage to crop species. Herbicide activity data for various compounds of this invention, which are shown by compound No. in Tables 1-12, are shown in Tables 13 and 14.

[2] = tested on: green foxtail (Setaria viridis, SETVI); assay: as above; details: POST emergent, 14 days after application, scale 0-100
Description: as §1, §2, §3, §4, §5

[3] = tested on: sicklepod (Cassia obtusifolia, CASOB); assay: as above; details: POST emergent, 14 days after application, scale 0-100
Description: as §1, §2, §3, §4, §5

[4] = tested on: redroot pigweed (Amaranthus retrofiexus, AMARE); assay: as above; details: POST emergent, 14 days after application
Description: as §1, §2, §3, §4, §5

[5] = tested on: cocklebur (Xanthium strumarium, XANST); assay: as above; details: POST emergent, 14 days after application, scale 0-100
Description: as §1, §2, §3, §4, §5

[6] = tested on: barnyardgrass (Echinochloa crus-galli, ECHCG); assay: as above; details: POST emergent, 14 days after application, scale 0-100
Description: as §1, §2, §3, §4, §5

[7] = tested on: johnsongrass (Sorghum halepense, SORHA); assay: as above; details: POST emergent, 14 days after application, scale 0-100
Description: as §1, §2, §3, §4, §5

[8] = tested on: ivyleaf morningglory (Ipomoea hederacea, IPOHE); assay: as above; details: POST emergent, 14 days after application, scale 0-100
Description: as §1, §2, §3, §4, §5

[9] = tested on: velvetleaf (Abutilon theophrasti, ABUTH); assay: as above; details: POST emergent, 14 days after application, scale 0-100
Description: as §1, §2, §3, §4, §5

[10] = tested on: large crabgrass (Digitaria sanguinalis, DIGSA); assay: as above; details: POST emergent, 14 days after application, scale 0-100
Description: as §1, §2, §3, §4, §5

[11] = tested on: lambsquarters (Chenopodium album, CHEAL); assay: as above; details: POST emergent, 14 days after application, scale 0-100
Description: as §1, §2, §3, §4, §5

[12] = tested on: common ragweed (Ambrosia artemisiifolia L., AMBEL); assay: Greenhouse herbicide screen, pre-emerge application, phytotoxicity rating; details: PRE emergent, 14 days after application, rating scale 0-100
Description: as §1, §2, §3, §4, §5

[13] = tested on: green foxtail (Setaria viridis, SETVI); assay: as above; details: PRE emergent, 14 days after application, rating scale 0-100
Description: as §1, §2, §3, §4, §5

[14] = tested on: sicklepod (Cassia obtusifolia, CASOB); assay: as above; details: PRE emergent, 14 days after application, rating scale 0-100
Description: as §1, §2, §3, §4, §5

[15] = tested on: redroot pigweed (Amaranthus retrofiexus, AMARE); assay: as above; details: PRE emergent, 14 days after application, rating scale 0-100
Description: as §1, §2, §3, §4, §5

[16] = tested on: cocklebur (Xanthium strumarium, XANST); assay: as above; details: PRE emergent, 14 days after application, rating scale 0-100
Description: as §1, §2, §3, §4, §5

[17] = tested on: barnyardgrass (Echinochloa crus-galli, ECHCG); assay: as above; details: PRE emergent, 14 days after application, rating scale 0-100
Description: as §1, §2, §3, §4, §5

[18] = tested on: johnsongrass (Sorghum halepense, SORHA); assay: as above; details: PRE emergent, 14 days after application, rating scale 0-100
Description: as §1, §2, §3, §4, §5

[19] = tested on: ivyleaf morningglory (Ipomoea hederacea, IPOHE); assay: as above; details: PRE emergent, 14 days after application, rating scale 0-100
Description: as §1, §2, §3, §4, §5

[20] = tested on: velvetleaf (Abutilon theophrasti, ABUTH); assay: as above; details: PRE emergent, 14 days after application, rating scale 0-100
Description: as §1, §2, §3, §4, §5

[21] = tested on: large crabgrass (Digitaria sanguinalis, DIGSA); assay: as above; details: PRE emergent, 14 days after application, rating scale 0-100
Description: as §1, §2, §3, §4, §5

[22] = tested on: lambsquarters (Chenopodium album, CHEAL); assay: as above; details: PRE emergent, 14 days after application, rating scale 0-100
Description: as §1, §2, §3, §4, §5

[23] = 63 g ai/ha, scale 0-100 (0 no damage, 100 complete death)

COC(=NN=C(C(C)(C)C)C(C)(C)C)c1cc(-n2c(=O)cc(C(F)(F)F)n(C)c2=O)c(F)cc1Cl [Compound 5-6, 2-chloro-5-(3,6-dihydro-3-methyl-2,6-dioxo-4-(trifluoromethyl)-1(2H)-pyrimidinyl)-N-[1-(1,1-dimethylethyl)-2,2-dimethylpropylidene]-4-fluoro-benzenecarbohydrazonic Acid Methyl Ester]
99: phytotoxicity rating AMBEL ([1]; 250 g ai/ha) | phytotoxicity rating DIGSA ([10]; 250 g ai/ha) | phytotoxicity rating AMBEL ([12]; 250 g ai/ha) | phytotoxicity rating DIGSA ([21]; 250 g ai/ha)
95: phytotoxicity rating SETVI ([2]; 63 g ai/ha) | phytotoxicity rating ABUTH ([9]; 250 g ai/ha) | phytotoxicity rating SETVI ([13]; 63 g ai/ha) | phytotoxicity rating ABUTH ([20]; 250 g ai/ha)
40: phytotoxicity rating CASOB ([3]; 63 g ai/ha) | phytotoxicity rating ECHCO ([6]; 63 g ai/ha) | phytotoxicity rating CASOB ([14]; 63 g ai/ha) | phytotoxicity rating ECHCG ([17]; 63 g ai/ha)
0: phytotoxicity rating XANST ([5]; 63 g ai/ha) | phytotoxicity rating XANST ([16]; 63 g ai/ha)
10: phytotoxicity rating XANST ([5]; 250 g ai/ha) | phytotoxicity rating XANST ([16]; 250 g ai/ha)
25: phytotoxicity rating SORHA ([7]; 63 g ai/ha) | phytotoxicity rating SORHA ([18]; 63 g ai/ha)
100: phytotoxicity rating SETVI ([2]; 250 g ai/ha) | phytotoxicity rating AMARE [4, 23] | phytotoxicity rating AMARE ([4]; 250 g ai/ha, scale 0-100) | phytotoxicity rating SORHA ([7]; 250 g ai/ha) | phytotoxicity rating CHEAL ([11]; 63 g ai/ha) | phytotoxicity rating CHEAL ([11]; 250 g ai/ha) | phytotoxicity rating SETVI ([13]; 250 g ai/ha) | phytotoxicity rating AMARE ([15]; 63 g ai/ha) | phytotoxicity rating AMARE ([15]; 250 g ai/ha) | phytotoxicity rating SORHA ([18]; 250 g ai/ha) | phytotoxicity rating CHEAL ([22]; 63 g ai/ha) | phytotoxicity rating CHEAL ([22]; 250 g ai/ha)
75: phytotoxicity rating ABUTH ([9]; 63 g ai/ha) | phytotoxicity rating ABUTH ([20]; 63 g ai/ha)
90: phytotoxicity rating ECHCO ([6]; 250 g ai/ha) | phytotoxicity rating ECHCG ([17]; 250 g ai/ha)
70: phytotoxicity rating IPOHE ([8]; 250 g ai/ha) | phytotoxicity rating IPOHE ([19]; 250 g ai/ha)
98: phytotoxicity rating CASOB ([3]; 250 g ai/ha) | phytotoxicity rating CASOB ([14]; 250 g ai/ha)
35: phytotoxicity rating AMBEL ([1]; 63 g ai/ha) | phytotoxicity rating IPOHE ([8]; 63 g ai/ha) | phytotoxicity rating AMBEL ([12]; 63 g ai/ha) | phytotoxicity rating IPOHE ([19]; 63 g ai/ha)
20: phytotoxicity rating DIGSA ([10]; 63 g ai/ha) | phytotoxicity rating DIGSA ([21]; 63 g ai/ha)

Cn1c(C(F)(F)F)cc(=O)n(-c2cc(C(=O)NN=C(C(C)(C)C)C(C)(C)C)c(Cl)cc2F)c1=O [Compound 6-4, 2-chloro-5-(3,6-dihydro-3-methyl-2,6-dioxo-4-(trifluoromethyl)-1(2H)-pyrimidinyl)-4-fluoro-benzoic acid, 2-[1-(1,1-dimethylethyl)-2,2-dimethylpropylidene]hydrazide]
95: phytotoxicity rating CASOB ([3]; 250 g ai/ha)
80: phytotoxicity rating ECHCO ([6]; 63 g ai/ha)
70: phytotoxicity rating DIGSA ([10]; 250 g ai/ha)
98: phytotoxicity rating CASOB ([14]; 63 g ai/ha) | phytotoxicity rating XANST ([16]; 63 g ai/ha) | phytotoxicity rating ECHCG ([17]; 63 g ai/ha)
99: phytotoxicity rating CASOB ([3]; 63 g ai/ha) | phytotoxicity rating SORHA ([18]; 63 g ai/ha)
85: phytotoxicity rating SETVI ([2]; 63 g ai/ha)
50: phytotoxicity rating DIGSA ([10]; 63 g ai/ha)
75: phytotoxicity rating AMBEL ([1]; 63 g ai/ha) | phytotoxicity rating SORHA ([7]; 63 g ai/ha)
100: phytotoxicity rating AMBEL ([1]; 250 g ai/ha) | phytotoxicity rating SETVI ([2]; 250 g ai/ha) | phytotoxicity rating AMARE [4, 23] | phytotoxicity rating AMARE ([4]; 250 g ai/ha, scale 0-100) | phytotoxicity rating XANST ([5]; 63 g ai/ha) | phytotoxicity rating XANST ([5]; 250 g ai/ha) | phytotoxicity rating ECHCO ([6]; 250 g ai/ha) | phytotoxicity rating SORHA ([7]; 250 g ai/ha) | phytotoxicity rating IPOHE ([8]; 63 g ai/ha) | phytotoxicity rating IPOHE ([8]; 250 g ai/ha) | phytotoxicity rating ABUTH ([9]; 63 g ai/ha) | phytotoxicity rating ABUTH ([9]; 250 g ai/ha) | phytotoxicity rating CHEAL ([11]; 63 g ai/ha) | phytotoxicity rating CHEAL ([11]; 250 g ai/ha) | phytotoxicity rating AMBEL ([12]; 63 g ai/ha) | phytotoxicity rating AMBEL ([12]; 250 g ai/ha) | phytotoxicity rating SETVI ([13]; 63 g ai/ha) | phytotoxicity rating SETVI ([13]; 250 g ai/ha) | phytotoxicity rating CASOB ([14]; 250 g ai/ha) | phytotoxicity rating AMARE ([15]; 63 g ai/ha) | phytotoxicity rating AMARE ([15]; 250 g ai/ha) | phytotoxicity rating XANST ([16]; 250 g ai/ha) | phytotoxicity rating ECHCG ([17]; 250 g ai/ha) | phytotoxicity rating SORHA ([18]; 250 g ai/ha) | phytotoxicity rating IPOHE ([19]; 63 g ai/ha) | phytotoxicity rating IPOHE ([19]; 250 g ai/ha) | phytotoxicity rating ABUTH ([20]; 63 g ai/ha) | phytotoxicity rating ABUTH ([20]; 250 g ai/ha) | phytotoxicity rating DIGSA ([21]; 63 g ai/ha) | phytotoxicity rating DIGSA ([21]; 250 g ai/ha) | phytotoxicity rating CHEAL ([22]; 63 g ai/ha) | phytotoxicity rating CHEAL ([22]; 250 g ai/ha)

Reference: patent publication US6770597B2, “Benzohydrazide derivatives as herbicides and desiccant compositions containing them” (Ishihara Sangyo Kaisha, Ltd., priority 2002, dated 2004)
